target: T1, ER (Homo sapiens, UniProt P03372); assay: ER degradation activity, in-cell western blot analysis in T47D cells; assay type: cell-based; conditions: 16 hours, Table A does not say which cell line (T47D or MCF7), read-out: Potency (DC50)
T1 construct: host or cells: T47D and MCF7 human breast cancer cells
T1 sequence (P03372 1-595): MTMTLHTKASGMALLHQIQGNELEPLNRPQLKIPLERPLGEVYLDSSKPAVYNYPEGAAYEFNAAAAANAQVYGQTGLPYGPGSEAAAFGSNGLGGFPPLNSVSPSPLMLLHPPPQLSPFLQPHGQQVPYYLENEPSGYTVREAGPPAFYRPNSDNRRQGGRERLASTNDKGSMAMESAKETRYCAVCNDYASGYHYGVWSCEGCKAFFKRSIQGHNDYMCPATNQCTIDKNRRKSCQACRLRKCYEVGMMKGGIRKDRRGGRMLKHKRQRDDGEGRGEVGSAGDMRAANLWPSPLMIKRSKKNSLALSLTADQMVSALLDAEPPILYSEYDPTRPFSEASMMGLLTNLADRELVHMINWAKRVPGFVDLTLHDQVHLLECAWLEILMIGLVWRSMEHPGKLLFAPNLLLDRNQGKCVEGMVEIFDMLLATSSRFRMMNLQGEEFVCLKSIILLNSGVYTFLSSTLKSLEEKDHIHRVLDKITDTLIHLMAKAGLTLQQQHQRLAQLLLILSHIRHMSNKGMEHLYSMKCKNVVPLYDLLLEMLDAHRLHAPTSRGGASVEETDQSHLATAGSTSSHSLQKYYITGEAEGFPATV
How it was run: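 Human T47D cells (DMEM, 10% FBS) are dosed for 16 h with 0.5% DMSO final and probed with 680- and 800-dye secondary antibodies. Relative ER is calculated against vehicle and untreated wells.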

Compound	DC50 [µM]
C[C@@H]1Cc2c([nH]c3ccccc23)[C@@H](c2c(F)cc(N3CCC(CN4CC(N5Cc6cc7c(cc6C5)C(=O)N(C5CCC(=O)NC5=O)C7=O)C4)CC3)cc2F)N1CC(F)F (stereo partly drawn) [E 50, 6-(1-((1-(4-((1R,3R)-2-(2,2-difluoroethyl)-3-methyl-2,3,4,9-tetrahydro-1H-pyrido[3,4-b]indol-1-yl)-3,5-difluorophenyl)piperidin-4-yl)methyl)azetidin-3-yl)-2-(2,6-dioxopiperidin-3-yl)-6,7-dihydropyrrolo[3,4-f]isoindole-1,3(2H,5H)-dione]	> 0.1
C[C@@H]1Cc2c([nH]c3ccccc23)[C@@H](c2c(F)cc(N3CCC4(CC3)CC(C(=O)N3CCC(CN5Cc6cc7c(cc6C5)C(=O)N(C5CCC(=O)NC5=O)C7=O)CC3)C4)cc2F)N1CC(F)F (stereo partly drawn) [E 99, 6-((1-(7-(4-((1R,3R)-2-(2,2-difluoroethyl)-3-methyl-2,3,4,9-tetrahydro-1H-pyrido[3,4-b]indol-1-yl)-3,5-difluorophenyl)-7-azaspiro[3.5]nonane-2-carbonyl)piperidin-4-yl)methyl)-2-(2,6-dioxopiperidin-3-yl)-6,7-dihydropyrrolo[3,4-f]isoindole-1,3(2H,5H)-dione]	0.01 to 0.1
C[C@@H]1Cc2c([nH]c3ccccc23)[C@@H](c2c(F)cc(N3CCC(CN4Cc5cc6c(cc5C4)C(=O)N(C4CCC(=O)NC4=O)C6)CC3)cc2F)N1CC(F)F (stereo partly drawn) [E 147, 3-(6-((1-(4-((1R,3R)-2-(2,2-difluoroethyl)-3-methyl-2,3,4,9-tetrahydro-1H-pyrido[3,4-b]indol-1-yl)-3,5-difluorophenyl)piperidin-4-yl)methyl)-1-oxo-3,5,6,7-tetrahydropyrrolo[3,4-f]isoindol-2(1H)-yl)piperidine-2,6-dione]	> 0.1
CN(c1ccc([C@H]2c3ccc(O)cc3CC[C@H]2c2ccccc2)cc1)C1CN([C@H]2CC[C@H](C(=O)N3Cc4cc5c(cc4C3)C(=O)N(C3CCC(=O)NC3=O)C5=O)CC2)C1 (stereo partly drawn) [E 394, 2-(2,6-dioxopiperidin-3-yl)-6-((1S,4r)-4-(3-((4-((1S,2R)-6-hydroxy-2-phenyl-1,2,3,4-tetrahydronaphthalen-1-yl)phenyl)(methyl)amino)azetidin-1-yl)cyclohexane-1-carbonyl)-6,7-dihydropyrrolo[3,4-f]isoindole-1,3(2H,5H)-dione]	> 0.1
O=C1CCC(N2C(=O)c3cc4c(cc3C2=O)CN(CC2CCN(c3ccc([C@@H]5c6ccc(O)cc6CC[C@@H]5c5ccccc5)cc3)CC2)C4)C(=O)N1 (mixture of isomers) [E 2, Rac-2-(2,6-dioxopiperidin-3-yl)-6-((1-(4-((1R,2S)-6-hydroxy-2-phenyl-1,2,3,4-tetrahydronaphthalen-1-yl)phenyl)piperidin-4-yl)methyl)-6,7-dihydropyrrolo[3,4-f]isoindole-1,3(2H,5H)-dione]	0.01 to 0.1
O=C1CCC(N2Cc3cc4c(cc3C2=O)CN(C(=O)[C@H]2CC[C@@H](N3CC(Nc5ccc([C@@H]6c7ccc(O)cc7CC[C@@H]6c6ccccc6)cc5)C3)CC2)C4)C(=O)N1 (single isomer, unassigned) [E 361]	> 0.1
C[C@@H]1Cc2c([nH]c3ccccc23)[C@@H](c2c(F)cc(-c3cnc(C(=O)N4CCC(N5Cc6cc7c(cc6C5)C(=O)N(C5CCC(=O)NC5=O)C7=O)CC4)nc3)cc2F)N1CC(F)F (stereo partly drawn) [E 309, 6-(1-(5-(4-((1R,3R)-2-(2,2-difluoroethyl)-3-methyl-2,3,4,9-tetrahydro-1H-pyrido[3,4-b]indol-1-yl)-3,5-difluorophenyl)pyrimidine-2-carbonyl)piperidin-4-yl)-2-(2,6-dioxopiperidin-3-yl)-6,7-dihydropyrrolo[3,4-f]isoindole-1,3(2H,5H)-dione]	0.01 to 0.1
CCC(=C(c1ccc(O)cc1)c1ccc(N2CCC3(CCN(C(=O)CN4Cc5cc6c(cc5C4)C(=O)N(C4CCC(=O)NC4=O)C6=O)CC3)CC2)cc1)c1ccccc1 (centres unmarked) [E 188, 2-(2,6-dioxopiperidin-3-yl)-6-(2-(9-(4-(1-(4-hydroxyphenyl)-2-phenylbut-1-en-1-yl)phenyl)-3,9-diazaspiro[5.5]undecan-3-yl)-2-oxoethyl)-6,7-dihydropyrrolo[3,4-f]isoindole-1,3(2H,5H)-dione]	0.01 to 0.1
O=C1CCC(N2C(=O)c3cc4c(cc3C2=O)CN(CCC(=O)NC2CCN(c3ccc([C@@H]5c6ccc(O)cc6CC[C@@H]5c5ccccc5)cc3)CC2)C4)C(=O)N1 (stereo partly drawn) [E332, 3-(6-(2,6-dioxopiperidin-3-yl)-5,7-dioxo-3,5,6,7-tetrahydropyrrolo[3,4-f]isoindol-2(1H)-yl)-N-(1-(4-((1R,2S)-6-hydroxy-2-phenyl-1,2,3,4-tetrahydronaphthalen-1-yl)phenyl)piperidin-4-yl)propanamide]	> 0.1

The remaining lines, values ahead:

DC50 [µM]	Compound
< 0.01	O=C1CCC(N2C(=O)c3cc4c(cc3C2=O)CN(CC(=O)N2CCC3(CC2)CCN(c2ccc(C(=C(CCCl)c5ccccc5)c5ccc(O)cc5)cc2)CC3)C4)C(=O)N1 (centres unmarked) [E 182, 6-(2-(9-(4-(4-chloro-1-(4-hydroxyphenyl)-2-phenylbut-1-en-1-yl)phenyl)-3,9-diazaspiro[5.5]undecan-3-yl)-2-oxoethyl)-2-(2,6-dioxopiperidin-3-yl)-6,7-dihydropyrrolo[3,4-f]isoindole-1,3(2H,5H)-dione]
< 0.01	C[C@@H]1Cc2c([nH]c3ccccc23)[C@@H](c2c(F)cc(N3CCC4(CCN(C(=O)CN5Cc6cc7c(cc6C5)C(=O)N(C5CCC(=O)NC5=O)C7=O)CC4)CC3)cc2F)N1CC(C)(F)F (stereo partly drawn) [E 253, 6-(2-(9-(4-((1R,3R)-2-(2,2-difluoropropyl)-3-methyl-2,3,4,9-tetrahydro-1H-pyrido[3,4-b]indol-1-yl)-3,5-difluorophenyl)-3,9-diazaspiro[5.5]undecan-3-yl)-2-oxoethyl)-2-(2,6-dioxopiperidin-3-yl)-6,7-dihydropyrrolo[3,4-f]isoindole-1,3(2H,5H)-dione]
< 0.01	C[C@@H]1Cc2c([nH]c3ccccc23)[C@@H](c2c(F)cc(N3CC4(CC(C(=O)N5CCC(N6Cc7cc8c(cc7C6)C(=O)N(C6CCC(=O)NC6=O)C8=O)CC5)C4)C3)cc2F)N1CC(F)F (stereo partly drawn) [E 116, 6-(1-(2-(4-((1R,3R)-2-(2,2-difluoroethyl)-3-methyl-2,3,4,9-tetrahydro-1H-pyrido[3,4-b]indol-1-yl)-3,5-difluorophenyl)-2-azaspiro[3.3]heptane-6-carbonyl)piperidin-4-yl)-2-(2,6-dioxopiperidin-3-yl)-6,7-dihydropyrrolo[3,4-f]isoindole-1,3(2H,5H)-dione]
< 0.01	C[C@@H]1Cc2cc(O)ccc2[C@@H](c2c(F)cc(N3CC4(CCN(C(=O)CN5Cc6cc7c(cc6C5)C(=O)N(C5CCC(=O)NC5=O)C7=O)CC4)C3)cc2F)N1CC(F)F (stereo partly drawn) [E 45, 6-(2-(2-(4-((1S,3R)-2-(2,2-difluoroethyl)-6-hydroxy-3-methyl-1,2,3,4-tetrahydroisoquinolin-1-yl)-3,5-difluorophenyl)-2,7-diazaspiro[3.5]nonan-7-yl)-2-oxoethyl)-2-(2,6-dioxopiperidin-3-yl)-6,7-dihydropyrrolo[3,4-f]isoindole-1,3(2H,5H)-dione]
< 0.01	C[C@@H]1Cc2c([nH]c3ccccc23)[C@@H](c2c(F)cc(N3CC4(CN(C(=O)CN5Cc6cc7c(cc6C5)C(=O)N(C5CCC(=O)NC5=O)C7)C4)C3)cc2F)N1CC(F)F (stereo partly drawn) [E 71, 3-(6-(2-(6-(4-((1R,3R)-2-(2,2-difluoroethyl)-3-methyl-2,3,4,9-tetrahydro-1H-pyrido[3,4-b]indol-1-yl)-3,5-difluorophenyl)-2,6-diazaspiro[3.3]heptan-2-yl)-2-oxoethyl)-1-oxo-3,5,6,7-tetrahydropyrrolo[3,4-f]isoindol-2(1H)-yl)piperidine-2,6-dione]

same assay, conditions: compounds 16 hours, Table A does not say whether T47D or MCF7, read-out: Potency (DC50)

DC50 [µM]	Compound
> 0.1	C[C@@H]1Cc2cc(O)ccc2[C@H](c2ccc(C3=CCC4(CC3)CCN(C(=O)CN3Cc5cc6c(cc5C3)C(=O)N(C3CCC(=O)NC3=O)C6=O)CC4)cc2)N1CC(F)F (stereo partly drawn) [E 449, 6-(2-(9-(4-((1S,3R)-2-(2,2-difluoroethyl)-6-hydroxy-3-methyl-1,2,3,4-tetrahydroisoquinolin-1-yl)phenyl)-3-azaspiro[5.5]undec-8-en-3-yl)-2-oxoethyl)-2-(2,6-dioxopiperidin-3-yl)-6,7-dihydropyrrolo[3,4-f]isoindole-1,3(2H,5H)-dione]
> 0.1	O=C1CCC(N2C(=O)c3cc4c(cc3C2=O)CN(CC2CCC3(CC2)CN(C(=O)c2ccc([C@@H]5c6ccc(O)cc6CC[C@@H]5c5ccccc5)cc2)C3)C4)C(=O)N1 (stereo partly drawn) [E 493, 2-(2,6-dioxopiperidin-3-yl)-6-((2-(4-((1R,2S)-6-hydroxy-2-phenyl-1,2,3,4-tetrahydronaphthalen-1-yl)benzoyl)-2-azaspiro[3.5]nonan-7-yl)methyl)-6,7-dihydropyrrolo[3,4-f]isoindole-1,3(2H,5H)-dione]
> 0.1	C[C@@H]1Cc2cc(O)ccc2[C@@H](c2ccc(C3=CCC4(CC3)CCN(C(=O)CN3Cc5cc6c(cc5C3)C(=O)N(C3CCC(=O)NC3=O)C6=O)CC4)cc2)N1CC(F)F (stereo partly drawn) [E 448, 6-(2-(9-(4-((1R,3R)-2-(2,2-difluoroethyl)-6-hydroxy-3-methyl-1,2,3,4-tetrahydroisoquinolin-1-yl)phenyl)-3-azaspiro[5.5]undec-8-en-3-yl)-2-oxoethyl)-2-(2,6-dioxopiperidin-3-yl)-6,7-dihydropyrrolo[3,4-f]isoindole-1,3(2H,5H)-dione]

From patent publication US20240190880A1 (THE REGENTS OF THE UNIVERSITY OF MICHIGAN, priority 2021, published 2024)
